For 23 compounds, TGI results are on record in PubChem BioAssay (NCI).

Structures are written as SMILES.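 Values below derive from 48-hour exposures of cells grown in 96-well plates, with endpoints linearly interpolated between the two concentrations bracketing the appropriate inhibition level. TGI is the concentration that stops growth completely.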

What all share (assay): growth of human tumour cells (NCI), 48 h
The test system of experiment [1] is 786-0 renal.
Experiment [2] concerns CCRF-CEM leukemia.
Experiment [3] has as its system EKVX NSCLC.
Experiment [4] concerns HOP-62 NSCLC.
Experiment [5] concerns M14 melanoma.
Experiment [6] has as its system MALME-3M melanoma.
Experiment [7] deals with MDA-MB-435.
In experiment [8] the test system is OVCAR-5 ovarian.
The subject of experiment [9] is SF-268 CNS.
Experiment [10] concerns SF-295 CNS.
Experiment [11] deals with SK-MEL-2 melanoma.
In experiment [12] the test system is SNB-75 CNS.

On to `NC(=O)c1nnc2cc(F)ccc2c1N`, for which the TGI in experiment [1], in experiment [2], in experiment [3], in experiment [4], in experiment [5] and in experiment [6] was over 100 µM throughout. Moreover, the TGI in [7], in [8], in experiment [9], in [10], in experiment [11] and in [12] was over 100 µM throughout.
For `CNc1ccc(-c2nc3cc(C)ccc3o2)cc1`, the TGI in experiment [1], in [2], in experiment [3], in experiment [4], in experiment [5] and in experiment [6] was over 100 µM in each case. In addition, the TGI in [7] was over 100 µM; in experiment [8], over 100 µM; in experiment [9], over 100 µM; in [10] it was over 100 µM; in experiment [11] it was over 100 µM; in [12], 33.7 µM.
Consider `O=C1C(F)=CC(COC(c2ccccc2)(c2ccccc2)c2ccccc2)OC1n1cc(F)c(=O)[nH]c1=O` (stereo not given), for which the TGI is 3.92 µM in experiment [1]; over 32 µM in experiment [2]; over 24.4 µM in experiment [3]; 11.6 µM in experiment [4]; 5.03 µM in experiment [5]; 31.4 µM in [6]. Also, the TGI in experiment [7] came to 3.18 µM; in [8], 4.61 µM; in experiment [9], 12.6 µM; in experiment [10], 5.06 µM; in experiment [11], 7.49 µM; in experiment [12] it was 10.9 µM.
As for `COC(=O)C(C)(N=Cc1ccccc1)c1ccccc1` (stereo not given), the TGI in [1], in [2], in experiment [3], in experiment [4], in experiment [5] and in [6] was over 100 µM throughout. For the same compound, the TGI in experiment [7], in [8], in experiment [9], in [10], in [11] and in [12] was over 100 µM throughout.
For the compound `CN(C)c1nc(NC23CC4CC(CC(C4)C2)C3)nc(N(C)C)n1`, the TGI in experiment [1] was over 89.5 µM; in experiment [2] it was 28.7 µM; in experiment [3], over 100 µM; in experiment [4], over 90.4 µM; in [5], over 57.9 µM; in experiment [6], over 71.5 µM. For the same compound, the TGI in [7] is over 100 µM; in experiment [8], over 100 µM; in experiment [9], over 100 µM; in experiment [10] it was over 33.3 µM; in experiment [11] it was 63.1 µM; in experiment [12], over 55.2 µM.
Regarding `CCOC(=O)N1CCN(c2ccc3c(C)cc(C)nc3n2)CC1`, the TGI in experiment [1], in [2], in [3], in [4], in experiment [5] and in [6] was over 100 µM throughout. In addition, the TGI in experiment [7], in experiment [8], in experiment [9], in [10], in experiment [11] and in [12] was over 100 µM throughout.
In the case of `COC(=O)C1=C(C)NC2(O)C=CC(=O)C3C(=O)N(c4ccccc4)C(=O)C132` (stereo not given), the TGI in experiment [1] was over 100 µM; in experiment [2], over 100 µM; in experiment [3], over 100 µM; in experiment [4], over 100 µM; in [5], over 100 µM; in [6] it was 88 µM. In addition, the TGI in experiment [7], in experiment [8], in experiment [9], in experiment [10], in experiment [11] and in [12] was over 100 µM in each case.
As to `Cn1ccn2c3nc4ccccc4nc3c(=O)c(C#N)c12`, the TGI was over 89.9 µM in experiment [1]; over 100 µM in experiment [2]; over 100 µM in experiment [3]; over 100 µM in experiment [5]; over 100 µM in experiment [6]; over 100 µM in experiment [7]. The TGI in experiment [8], in experiment [9], in [10], in experiment [11] and in experiment [12] was over 100 µM each time.
With `CCOC(=O)/C(=C\c1ccc(N(C)C)cc1)S(=O)(=O)C(F)(F)C(F)(F)C(F)(F)C(F)(F)F`, the TGI in [1], in [2], in experiment [3], in experiment [4], in experiment [5] and in [6] was over 100 µM each time. The TGI in experiment [7], in experiment [8], in [9], in experiment [10], in experiment [11] and in experiment [12] was over 100 µM each time.
Take `CC(C)C(C/C=C1\CC(CO)(COC(=O)c2ccccc2)OC1=O)C(C)C` (stereo not given): the TGI came out at 28.3 µM in experiment [1]; 44.1 µM in [2]; 29.8 µM in experiment [3]; 28.7 µM in experiment [4]; 32.8 µM in [5]; 31.9 µM in experiment [6]. Further, the TGI in [7] is over 100 µM; in experiment [8], 28 µM; in [9], 35.5 µM; in experiment [10] it was 28.7 µM; in experiment [11] it was over 100 µM; in [12], 29.1 µM.
Regarding `COC(=O)/C=C(\C)C(=O)N(C)c1ccccc1I`, the TGI in experiment [1], in experiment [2], in [3], in experiment [4], in [5] and in experiment [6] was over 100 µM throughout. For the same compound, the TGI in experiment [7], in experiment [8], in [9], in experiment [10], in [11] and in experiment [12] was over 100 µM throughout.
With `FC(F)(F)c1ccccc1N1CCN(c2nc(-c3cccs3)nc3ccc(Br)cc23)CC1`, the TGI in experiment [1] was over 100 µM; in experiment [2], 39.8 µM; in [3], over 100 µM; in experiment [4] it was over 100 µM; in experiment [5], over 100 µM; in experiment [6], 55.9 µM. Moreover, the TGI in experiment [7] is 63.3 µM; in [8], over 100 µM; in [9], over 100 µM; in experiment [10], over 100 µM; in experiment [11], 74.1 µM; in experiment [12], over 100 µM.
As to `N#Cc1c(SCc2ccccc2)nc(-c2ccccc2)[nH]c1=S`, the TGI is 48 µM in [1]; over 100 µM in experiment [2]; 93.6 µM in experiment [3]; 40.7 µM in experiment [4]; 89.8 µM in [5]; over 100 µM in [6]. Moreover, the TGI amounted to 61.3 µM in experiment [7]; 53.6 µM in experiment [8]; 57 µM in [9]; 55.1 µM in experiment [10]; 32.4 µM in experiment [11]; 47.1 µM in [12].
Consider `Clc1ccc(Cc2nc3ccc(CCN4CCN(c5ccccc5)CC4)cc3[nH]2)cc1`, for which the TGI was 23.1 µM in experiment [1]; over 100 µM in experiment [2]; 79.9 µM in [3]; 30.5 µM in experiment [4]; 19.2 µM in [5]; 32.9 µM in experiment [6]. Further, the TGI in experiment [7] was 26.6 µM; in [8] it was 66.4 µM; in experiment [9] it was over 100 µM; in [10] it was 26.5 µM; in experiment [11], 30.6 µM; in experiment [12], 38.3 µM.
As to `COc1ccccc1C1SCC(=O)N1c1ccc(-c2ccc(-n3c(-c4ccccc4)nc4ccccc4c3=O)cc2)cc1` (stereo not given), the TGI in experiment [1], in experiment [2], in experiment [3], in [4], in experiment [5] and in experiment [6] was over 100 µM each time. Further, the TGI in [7], in experiment [8], in experiment [9], in experiment [10], in experiment [11] and in experiment [12] was over 100 µM throughout.
On to `CC12CCC(C(=O)O1)C(C)(C)O2` (stereo not given), for which the TGI in experiment [1], in experiment [2], in experiment [3], in [4], in experiment [5] and in [6] was over 100 µM in each case. The TGI in [7], in experiment [8], in experiment [9], in experiment [10], in experiment [11] and in experiment [12] was over 100 µM throughout.
On to `[Se]=P(c1ccccc1)(c1ccccc1)c1ccc(C(c2ccccc2)=P(c2ccccc2)(c2ccccc2)c2ccccc2)cc1`, for which the TGI in [1] is 10.8 µM; in [2] it was 8.37 µM; in experiment [3] it was 15.8 µM; in [4], 4.33 µM; in [5], 24.5 µM; in experiment [6] it was 2.51 µM. Besides, the TGI in experiment [7] is 3.46 µM; in [8], 18.7 µM; in [9] it was 9.26 µM; in experiment [10], 10.2 µM; in experiment [11], 6.21 µM; in [12] it was 3.49 µM.
For `ClC(Cl)(Cl)C1=N[C@H]2[C@H](Br)[C@@H]3O[C@@H](c4ccccc4)[C@H](c4ccccc4)O[C@@H]3[C@H]2O1`, the TGI is 39.6 µM in experiment [1]; 47.2 µM in [2]; 50.3 µM in experiment [3]; 41.3 µM in [4]; 50.3 µM in experiment [5]; 36.2 µM in experiment [6]. Further, the TGI in [7] is 42.4 µM; in experiment [8] it was 37.5 µM; in experiment [9] it was 37.2 µM; in experiment [10] it was 34.3 µM; in experiment [11], 31.3 µM; in experiment [12] it was 44 µM.
In the case of `O=C(CN1CCN(Cc2ccccc2)CC1)N1CCCn2c1nc1ccccc1c2=O`, the TGI in [1], in experiment [2], in experiment [3], in [4], in experiment [5] and in [6] was over 100 µM in each case. Besides, the TGI in experiment [7], in [8], in [9], in experiment [10], in experiment [11] and in experiment [12] was over 100 µM each time.
With `C/C(=N/NC(=S)Nc1ccccc1Cl)c1cccc(/C(C)=N\NC(=S)Nc2ccccc2Cl)n1`, the TGI in experiment [1], in experiment [2], in experiment [3], in experiment [4], in experiment [5] and in experiment [6] was over 100 µM each time. In addition, the TGI in experiment [7], in experiment [8], in experiment [9], in experiment [10], in [11] and in experiment [12] was over 100 µM in each case.
For the compound `CC(C(=O)ON1C(=O)CCC1=O)c1ccc(C(=O)c2ccccc2)s1` (stereo not given), the TGI in experiment [1], in experiment [2], in experiment [3], in experiment [4], in experiment [5] and in experiment [6] was over 100 µM throughout. Also, the TGI in [7], in [8], in experiment [9], in experiment [10], in [11] and in [12] was over 100 µM throughout.
Turning to `COC(=O)c1cc(NC(=O)c2cc(NC(=O)c3cc([N+](=O)[O-])cn3C)cn2C)cn1C`, the TGI in [1], in [2], in experiment [3], in [4], in experiment [5] and in experiment [6] was over 100 µM each time. Moreover, the TGI in experiment [7], in experiment [8], in experiment [9], in experiment [10], in [11] and in experiment [12] was over 100 µM throughout.
Consider `C=CCOCn1cnc2c(N)ncnc21`, for which the TGI in experiment [1], in [2], in [3], in experiment [4], in experiment [5] and in experiment [6] was over 100 µM each time. The TGI in [7], in experiment [8], in experiment [9], in experiment [10], in experiment [11] and in experiment [12] was over 100 µM throughout.
